# In ChEMBL document CHEMBL4680338, “Sinomenine inhibits hypoxia induced breast cancer side population cells metastasis by PI3K/Akt/mTOR pathway” (Bioorg Med Chem, 2021):
# Active and inactive are the calls of the source. The calls are words filed in the database; no cut-off is given here.
# What was measured:
# MCF7 [1] = experiment: Decrease in hypoxia-induced cell invasion in human MCF7 side population cells at 0.25 to 1 mM measured after measured after 24 hrs by crystal violet staining based transwell assay; format: functional; conditions: dose 0.25-1 mM
# MCF7 [2] = experiment: Cytotoxicity against human MCF7 side population cells assessed as reduction in cell viability at 2 to 4 mM measured after 24 hrs under hypoxia condition by CCK-8 assay; format: functional, cell-based; conditions: dose 2-4 mM
# MDA-MB-231 [3] = experiment: Cytotoxicity against human MDA-MB-231 side population cells assessed as reduction in cell viability at 0.25 to 1 mM measured after 24 hrs under hypoxia condition by CCK-8 assay; format: functional, cell-based; conditions: dose 0.25-1 mM
# MCF7 [4] = experiment: Cytotoxicity against human MCF7 side population cells assessed as reduction in cell viability at 2 to 4 mM measured after 24 hrs under normoxia condition by CCK-8 assay; format: functional, cell-based; conditions: dose 2-4 mM
# MDA-MB-231 [5] = experiment: Inhibition of hypoxia-induced activation of PI3K/Akt/mTOR signaling in human MDA-MB-231 side population cells at 1 nM measured after 24 hrs in presence of IGF-1 by Western blot analysis
# MDA-MB-231 [6] = experiment: Suppression of hypoxia-induced upregulation of vimentin expression in human MDA-MB-231 cells at 0.25 to 1 mM by Western blot analysis; format: functional, cell-based; conditions: dose 0.25-1 mM
# MDA-MB-231 [7] = experiment: Suppression of hypoxia-induced upregulation of MMP9 expression in human MDA-MB-231 cells at 0.25 to 1 mM by Western blot analysis; format: functional, cell-based; conditions: dose 0.25-1 mM
# MDA-MB-231 [8] = experiment: Suppression of hypoxia-induced upregulation of MMP2 expression in human MDA-MB-231 cells at 0.25 to 1 mM by Western blot analysis; format: functional, cell-based; conditions: dose 0.25-1 mM
# MDA-MB-231 [9] = experiment: Cytotoxicity against human MDA-MB-231 side population cells assessed as reduction in cell viability at 2 to 4 mM measured after 24 hrs under hypoxia condition by CCK-8 assay; format: functional, cell-based; conditions: dose 2-4 mM
# MDA-MB-231 [10] = experiment: Cytotoxicity against human MDA-MB-231 side population cells assessed as reduction in cell viability at 2 to 4 mM measured after 24 hrs under normoxia condition by CCK-8 assay; format: functional, cell-based; conditions: dose 2-4 mM
# MCF7 [11] = experiment: Cytotoxicity against human MCF7 side population cells assessed as reduction in cell viability at 0.25 to 1 mM measured after 24 hrs under hypoxia condition by CCK-8 assay; format: functional, cell-based; conditions: dose 0.25-1 mM
# MDA-MB-231 [12] = experiment: Cytotoxicity against human MDA-MB-231 cells assessed as reduction in cell viability at 1 to 4 mM measured after 24 hrs under normoxia condition by CCK-8 assay; format: functional, cell-based; conditions: dose 1-4 mM
# MDA-MB-231 [13] = experiment: Inhibition of hypoxia-induced activation of PI3K/Akt/mTOR signaling in human MDA-MB-231 side population cells assessed as decrease in phosphorylated mTOR level at 0.25 to 1 mM measured after 24 hrs by Western blot analysis; conditions: dose 0.25-1 mM
# MDA-MB-231 [14] = experiment: Suppression of hypoxia-induced upregulation of N-cadherin expression in human MDA-MB-231 cells at 0.25 to 1 mM by Western blot analysis; format: functional, cell-based; conditions: dose 0.25-1 mM
# MDA-MB-231 [15] = experiment: Decrease in hypoxia-induced cell invasion in human MDA-MB-231 side population cells at 0.25 to 1 mM measured after measured after 24 hrs by crystal violet staining based transwell assay; format: functional; conditions: dose 0.25-1 mM
# MCF7 [16] = experiment: Cytotoxicity against human MCF7 side population cells assessed as reduction in cell viability at 0.25 to 1 mM measured after 24 hrs by CCK-8 assay; format: functional, cell-based; conditions: dose 0.25-1 mM
# MDA-MB-231 [17] = experiment: Cytotoxicity against human MDA-MB-231 side population cells assessed as reduction in cell viability at 0.25 to 1 mM measured after 24 hrs by CCK-8 assay; format: functional, cell-based; conditions: dose 0.25-1 mM
# MCF7 [18] = experiment: Cytotoxicity against human MCF7 cells assessed as reduction in cell viability at 0.25 to 1 mM measured after 24 hrs under hypoxia condition by CCK-8 assay; format: functional, cell-based; conditions: dose 0.25-1 mM
# MDA-MB-231 [19] = experiment: Suppression of hypoxia-induced upregulation of MMP9 expression in human MDA-MB-231 cells at 1 nM measured after 24 hrs in presence of IGF-1 by Western blot analysis; format: functional, cell-based
# MDA-MB-231 [20] = experiment: Cytotoxicity against human MDA-MB-231 cells assessed as reduction in cell viability at 0.25 to 1 mM measured after 24 hrs under hypoxia condition by CCK-8 assay; format: functional, cell-based; conditions: dose 0.25-1 mM
# MCF7 [21] = experiment: Inhibition of hypoxia-induced cell invasion in human MCF7 cells at 0.25 to 1 mM measured after measured after 24 hrs by crystal violet staining based transwell assay; format: functional; conditions: dose 0.25-1 mM
# MDA-MB-231 [22] = experiment: Suppression of hypoxia-induced upregulation of MMP9 expression in human MDA-MB-231 side population cells at 0.25 to 1 mM by Western blot analysis; format: functional; conditions: dose 0.25-1 mM
# MDA-MB-231 [23] = experiment: Reversal of hypoxia-induced downregulation of E-cadherin expression in human MDA-MB-231 side population cells at 0.25 to 1 mM by Western blot analysis; format: functional; conditions: dose 0.25-1 mM
# MDA-MB-231 [24] = experiment: Suppression of hypoxia-induced upregulation of N-cadherin expression in human MDA-MB-231 side population cells at 0.25 to 1 mM by Western blot analysis; format: functional; conditions: dose 0.25-1 mM
# MDA-MB-231 [25] = experiment: Inhibition of hypoxia-induced cell invasion in human MDA-MB-231 cells at 0.25 to 1 mM measured after measured after 24 hrs by crystal violet staining based transwell assay; format: functional; conditions: dose 0.25-1 mM
# MDA-MB-231 [26] = experiment: Suppression of hypoxia-induced upregulation of MMP2 expression in human MDA-MB-231 cells at 1 nM measured after 24 hrs in presence of IGF-1 by Western blot analysis; format: functional, cell-based
# MDA-MB-231 [27] = experiment: Inhibition of hypoxia-induced activation of PI3K/Akt/mTOR signaling in human MDA-MB-231 side population cells assessed as decrease in phosphorylated PI3K level at 0.25 to 1 mM measured after 24 hrs by Western blot analysis; conditions: dose 0.25-1 mM
# MDA-MB-231 [28] = experiment: Suppression of hypoxia-induced upregulation of MMP2 expression in human MDA-MB-231 side population cells at 0.25 to 1 mM by Western blot analysis; format: functional; conditions: dose 0.25-1 mM
# MCF7 [29] = experiment: Cytotoxicity against human MCF7 cells assessed as reduction in cell viability at 1 to 4 mM measured after 24 hrs under normoxia condition by CCK-8 assay; format: functional, cell-based; conditions: dose 1-4 mM
# MDA-MB-231 [30] = experiment: Suppression of hypoxia-induced upregulation of vimentin expression in human MDA-MB-231 side population cells at 0.25 to 1 mM by Western blot analysis; format: functional; conditions: dose 0.25-1 mM
# MDA-MB-231 [31] = experiment: Reversal of hypoxia-induced downregulation of E-cadherin expression in human MDA-MB-231 cells at 0.25 to 1 mM by Western blot analysis; format: functional, cell-based; conditions: dose 0.25-1 mM
# MDA-MB-231 [32] = experiment: Inhibition of hypoxia-induced activation of PI3K/Akt/mTOR signaling in human MDA-MB-231 side population cells assessed as decrease in phosphorylated Akt level at 0.25 to 1 mM measured after 24 hrs by Western blot analysis; conditions: dose 0.25-1 mM
smiles,measurement,setting,value
COC1=C[C@@H]2[C@@H]3Cc4ccc(OC)c(O)c4[C@]2(CCN3C)CC1=O,Activity,MCF7 [1],Active
same,Activity,MCF7 [2],Active
same,Activity,MDA-MB-231 [3],inactive
same,Activity,MCF7 [4],Active
same,inhibition,MDA-MB-231 [5],inactive
same,Activity,MDA-MB-231 [6],Active
same,Activity,MDA-MB-231 [7],Active
same,Activity,MDA-MB-231 [8],Active
same,Activity,MDA-MB-231 [9],Active
same,Activity,MDA-MB-231 [10],Active
same,Activity,MCF7 [11],inactive
same,Activity,MDA-MB-231 [12],Active
same,inhibition,MDA-MB-231 [13],Active
same,Activity,MDA-MB-231 [14],Active
same,Activity,MDA-MB-231 [15],Active
same,Activity,MCF7 [16],inactive
same,Activity,MDA-MB-231 [17],inactive
same,Activity,MCF7 [18],inactive
same,Activity,MDA-MB-231 [19],inactive
same,Activity,MDA-MB-231 [20],inactive
same,inhibition,MCF7 [21],Active
same,Activity,MDA-MB-231 [22],Active
same,Activity,MDA-MB-231 [23],Active
same,Activity,MDA-MB-231 [24],Active
same,inhibition,MDA-MB-231 [25],Active
same,Activity,MDA-MB-231 [26],inactive
same,inhibition,MDA-MB-231 [27],Active
same,Activity,MDA-MB-231 [28],Active
same,Activity,MCF7 [29],Active
same,Activity,MDA-MB-231 [30],Active
same,Activity,MDA-MB-231 [31],Active
same,inhibition,MDA-MB-231 [32],Active
